The record followed here is publication PMC11653251 (2024).

Assay [1] relates to (AT)6 (DNA, duplex) ATATATATATAT
Put plainly: UV-vis absorption titration, Bard fit. As to conditions: K+ (50 mM potassium phosphate), complex 10 μM, average of two titrations, [DNA] per nucleobase (stated for st-DNA).

Assay [2] concerns (GC)6 (DNA, duplex) GCGCGCGCGCGC
Put plainly: UV-vis absorption titration, Bard fit. The note with it: K+ (50 mM potassium phosphate), complex 10 μM, average of two titrations, [DNA] per nucleobase (stated for st-DNA).

For `Cc1cnc2c(ccc3c(C)c(C)cnc32)c1C.Cc1cnc2c(ccc3c(C)c(C)cnc32)c1C.[Cr+3].c1ccc2cc3nc4c5cccnc5c5ncccc5c4nc3cc2c1` [Δ-1], the Kb in assay [1] is on record as 1.13 ± 0.24 × 10^6 M^-1; in assay [2], 1.17 ± 0.53 × 10^6 M^-1.
The matching figures for `Cc1cnc2c(ccc3c(C)c(C)cnc32)c1C.Cc1cnc2c(ccc3c(C)c(C)cnc32)c1C.[Cr+3].c1ccc2cc3nc4c5cccnc5c5ncccc5c4nc3cc2c1` [Λ-1]: 11.8 ± 0.35 × 10^6 M^-1 and 2.39 ± 0.32 × 10^6 M^-1.
